Measurements published in PMC5691623 (Viruses, 2017).

Tests used:
[1] = set-up: method as in earlier work; conditions: cited from earlier work
IAV = experiment: microbe, parasite or virus in culture; format: cell-based, Human influenza A/Udorn/307/1972 (H3N2); conditions: for EC50: Influenza A virus, RPE
in vitro = conditions: human
MERS-CoV = format: cell-based; conditions: Vero cells, 24 hpi, moi 0.1
[2] = tested on: RPE or A549 cells treated with bacterial lipopolysaccharides (LPS); experiment: Death of cells treated with bacterial LPS; format: cell-based, human; conditions: LPS 10 µg/ml
mock-infected RPE cells = conditions: human
[3] = tested on: vRNA-transfected RPE cells; format: cell-based, human
IAV-infected RPE cells [4] = format: cell-based, human
IAV-infected RPE cells [5] = format: cell-based, human; remark: listed apart in the source
[6] = tested on: IAV-infected RPE and A549 cells; format: cell-based, human

SMILES: CN(C)CC#Cc1ccc(OCCCc2sc(N3CCc4cccc(C(=O)Nc5nc6ccccc6s5)c4C3)nc2C(=O)O)c(F)c1 [A-1155463]
- side effect in animals [1]: reversible thrombocytopenia
- effect on viral replication (IAV): limited viral replication
- EC50 (IAV): < 10 nM
- CC50 (in vitro): 60 nM

SMILES: Cc1c(-c2ccc(N3CCc4cccc(C(=O)Nc5nc6ccccc6s5)c4C3)nc2C(=O)O)cnn1CC12CC3CC(CC(C3)C1)C2 [A-1331852]
- effect on viral replication (IAV): limited viral replication
- EC50 (IAV): < 10 nM
- CC50 (in vitro): 50 nM

SMILES: CC1(C)CCC(CN2CCN(c3ccc(C(=O)NS(=O)(=O)c4ccc(NCC5CCOCC5)c([N+](=O)[O-])c4)c(Oc4cnc5[nH]ccc5c4)c3)CC2)=C(c2ccc(Cl)cc2)C1 [ABT-199]
- EC50 (IAV): 3710 nM
- CC50 (in vitro): 4640 nM

SMILES: CC1(C)CCC(c2ccc(Cl)cc2)=C(CN2CCN(c3ccc(C(=O)NS(=O)(=O)c4ccc(N[C@H](CCN5CCOCC5)CSc5ccccc5)c(S(=O)(=O)C(F)(F)F)c4)cc3)CC2)C1 [ABT-263]
- effect on MERS-CoV replication (MERS-CoV): blocks MERS-CoV replication
- death of LPS-treated cells [2]: did not accelerate the death
- time without toxicity in mock-infected cells (mock-infected RPE cells): at least 36 h
- death of vRNA-transfected cells [3]: kills vRNA-transfected (160 ng) but not mock-transfected RPE cells
- ΔAUC CTxG (IAV-infected RPE cells [4]): 2.5
- PFU/ml (IAV): 0.01x10^6 PFU/ml
- Virus titer FC (log10) (IAV): 2.0±0.2 log10
- effect on viral replication (IAV): limited viral replication
- EC50 (IAV): 80 nM
- CC50 (in vitro): 800 nM
- time post infection at which premature death of infected cells was observed (IAV-infected RPE cells [5]): ≤ 12 h
- ΔAUC CTG (IAV-infected RPE cells [5]): 9.9

SMILES: CN(C)CC[C@H](CSc1ccccc1)Nc1ccc(S(=O)(=O)NC(=O)c2ccc(N3CCN(Cc4ccccc4-c4ccc(Cl)cc4)CC3)cc2)cc1[N+](=O)[O-] [ABT-737]
- effect on viral replication (IAV): limited viral replication
- EC50 (IAV): 280 nM
- CC50 (in vitro): 350 nM

SMILES: O=C(O)[C@H]1C2CCC(CC2)[C@@H]1Nc1nc(-c2c[nH]c3ncc(F)cc23)ncc1F [JNJ-872]
- rescue from ABT-263-mediated premature death [6]: rescued

SMILES: COC1=CC(c2cc3ccccc3[nH]2)=N/C1=C\c1[nH]c(C)cc1C [Obatoclax, obatoclax]
- rescue from ABT-263-mediated premature death [6]: rescued

SMILES: C[C@H]1C/C=C/Cc2cccc(O)c2C(=O)O[C@@H](C/C=C/NC(=O)C#Cc2ccccc2)C[C@H]1O [SaliPhe, Saliphenylhalamide]
- rescue from ABT-263-mediated premature death [6]: rescued

SMILES: Nc1ccn([C@@H]2O[C@H](CO)[C@@H](O)C2(F)F)c(=O)n1 [gemcitabine]
- rescue from ABT-263-mediated premature death [6]: rescued
